Source: patent US20220089646A1 (THE UNIVERSITY OF QUEENSLAND, priority 2019, published 2022)
*1 amine or outer side, *2 acyl side, *3 side chain or, on linkers, in order; H or OH if unused. Where a SMILES comes first, the peptide text is derived from it. Bridges are numbered along the chain shown (N, C = ends). [ ]: non-standard residue; d: D form. NHCH2CMe2S = CC(C)(CN[*:1])S[*:2]

Legend:
DOP = DOP (Homo sapiens, UniProt P41143); experiment: Inhibition of Forskolin-induced cAMP production in HEK-DOP cells (AlphaScreen, DP series); format: cell-based; settings: for IC50: Forskolin 50 μM/well, 95% CI in brackets; for IC80: approximate IC80, 'EC anything' protocol
DOP, sequence (P41143 whole entry): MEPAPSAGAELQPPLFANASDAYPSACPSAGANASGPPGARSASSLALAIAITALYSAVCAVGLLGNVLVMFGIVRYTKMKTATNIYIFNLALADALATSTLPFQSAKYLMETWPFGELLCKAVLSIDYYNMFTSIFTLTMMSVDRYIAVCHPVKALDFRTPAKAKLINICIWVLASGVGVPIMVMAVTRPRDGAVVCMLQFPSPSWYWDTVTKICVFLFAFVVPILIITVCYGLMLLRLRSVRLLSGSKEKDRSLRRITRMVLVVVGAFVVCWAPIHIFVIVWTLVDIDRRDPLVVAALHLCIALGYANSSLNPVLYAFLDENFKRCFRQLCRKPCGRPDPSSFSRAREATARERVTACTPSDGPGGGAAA
Method: DP-7-11 and DP-7-12 were assessed for the ability to inhibit cAMP production in HEK-DOP and HEK KOP cells.
The HEK-293 DOP (HEK-DOP) and HEK-293 KOP (HEK-KOP) cell lines were cultured in a T75 flask, in Dulbeco's Modified Eagle's Medium (DMEM) complete with 10% (v/v) fetal bovine serum (FBS) and 1% (v/v) Geneticin. Cells were incubated in a humidified atmosphere of 37° C. (95% air and 5% CO2). Cells were passaged at 80-90% confluence and media was changed every two days.
Stimulation buffer and Lysis buffer were prepared fresh on the day of each assay. Stimulation buffer contained 19.5 mL Hanks buffered saline solution, Bovine serum albumin (BSA) 0.1% (w/v), 0.5 mM 3-Isobutyl-1-methylxanthine (IBMX) and 5 mM HEPES (4-(2-hydroxyethyl)-1-piperazineethanesulfonic acid). Lysis buffer contained 19 mL Mili-Q H2O, BSA 0.1% (w/v), 0.3% (v/v) 10% Tween-20, and 5 mM HEPES. Both buffers were adjusted to pH 7.4 with NaOH.
The cAMP standard dilution series was prepared from the 50 μM cAMP standard solution provided by the cAMP assay kit. The standard solution was vortexed before being serially diluted to provide a concentration range of 5×10^−6 M to 5×10^−11 M in ½ Log intervals.
For this assay, Forskolin was optimised at 50 μM/well. 25 mM stocks were used to prepare 0.2 mM Forskolin. The concentration of Forskolin prepared was 4 times the required concentration in the well to account for further dilution in the well. 0.1 mM Forskolin solution was then made from this and used to dilute the peptide solutions.
DP-7-11 and DP-7-12 provided in powder form and reconstituted to 10 mM stock solutions and diluted to 1 mM working stocks using Mili-Q H2O. Each peptide solution was serially diluted to give concentrations of 1×10^−6 to 3×10^−7 M with stimulation buffer.
Stimulation buffer was added to the 0.2 mM Forskolin solution in a 1:1 ratio to prepare the Forskolin only treatment solution. This was the positive control. Stimulation buffer was used as the negative control.
Cells were harvested from two T75 flasks on the day of experimentation. Identical protocol was used for both DOP and KOP cells. The cells were first removed from the incubator and washed with Versene®. The cells were then incubated in 2 mL of Versene® at 37° C. for 5 minutes. Following this, the mixture was made up to 5 mL with Versene® in a centrifuge tube. This was centrifuged at 1300 rpm for 2 minutes at 23° C. The supernatant was then decanted and the cells resuspended in 100 μL stimulation buffer for counting. A hemocytometer was used to count the cells. This assay required the concentration of cells to be 13300 cells/μL
This method was used to conduct all cAMP Alphascreen assays. The acceptor bead mixture consisted of acceptor beads and stimulation buffer mixed according to the ratio 1:35 given in the kit. From this, the acceptor beads mixture was used to prepare separate mixtures for the cAMP standard curve and for the treatment wells of the assay. For the treatment wells, the beads were mixed with cells in a 1:1 ratio. For the cAMP standard curve, the beads were mixed with more stimulation buffer in a 1:1 ratio. The donor bead mixture consisted of donor beads, biotinylated cAMP and lysis buffer mixed in the ratio 1:3:300.
The DP series compounds were assayed as follows: The assay was performed using a 96 well ½ area plate. The different cAMP standard solutions (3 μL/well) were plated in duplicate. The different concentrations of drug (3 μL/well), and control solutions (3 μL/well) were plated in triplicate. Following this, the acceptor bead mixture (3 μL/well) was added to the respective sets—either cAMP standard curve or the treatment. This was covered and incubated on the orbital shaker for 30 minutes at room temperature. Then, the donor bead mixture (10 μL/well) was added to each well. This was incubated at room temperature overnight on the orbital shaker. […]

KOP = KOP (Homo sapiens, UniProt P41145); experiment: cAMP assay with naloxone in HEK-KOP cells; format: cell-based; settings: naloxone 100 μM/well; for Mean cAMP response (FIG. 14): HEK-KOP, naloxone assay, peptide at approximate IC80; for Naloxone reversal of cAMP inhibition through KOP: p<0.01
KOP, sequence (P41145 whole entry): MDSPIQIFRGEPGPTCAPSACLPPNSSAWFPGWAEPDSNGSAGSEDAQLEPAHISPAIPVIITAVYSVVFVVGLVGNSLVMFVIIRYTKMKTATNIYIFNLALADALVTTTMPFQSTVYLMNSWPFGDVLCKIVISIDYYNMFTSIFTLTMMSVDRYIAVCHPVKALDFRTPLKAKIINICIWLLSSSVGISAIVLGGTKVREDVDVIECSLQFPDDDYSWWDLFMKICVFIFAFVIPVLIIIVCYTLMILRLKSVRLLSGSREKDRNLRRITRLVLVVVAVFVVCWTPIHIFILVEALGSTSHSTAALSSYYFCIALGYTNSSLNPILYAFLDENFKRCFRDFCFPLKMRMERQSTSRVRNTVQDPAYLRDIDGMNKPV
Method: The preparation of buffers, cAMP standard curve, bead solutions were carried out identically to the agonist assay.
Forskolin had been optimised at 50 μM/well. Thus, the 25 mM stocks were used to prepare 300 μL of 0.3 mM Forskolin. The concentration of Forskolin prepared was 6 times the required concentration in the well to account for further dilution in the well. Forskolin solution was then made from this and used to dilute the drug solutions.
Approximate IC80 values were used for DP-7-11 and DP-7-12 to determine the ability of naloxone to reverse agonist inhibitory effect.
The desired concentration of naloxone was 100 μM/well. Thus, 100 μL of 600 μM naloxone was made up from 100 mM stock. This was 6 times the desired in-well concentration to account for further dilution in the well by Forskolin, peptide, cells and acceptor bead solutions.
Stimulation buffer was added to the 0.3 mM Forskolin solution to prepare the Forskolin only treatment solution as the positive control. Stimulation buffer used as the negative control.
The DP series compounds were assayed as follows: The different cAMP standard solutions (3 μL/well) were plated in duplicate. Naloxone solution was then plated (1 μL/well) for each treatment (DP-7-11, DP-7-12, Forskolin only and stimulation buffer) in triplicate. In the same way, stimulation buffer was plated (1 μL/well) for the same number of wells. This made up two sets of wells, antagonist and non-antagonist. Following this, the acceptor bead and cell mixture (3 μL/well) was added to the treatment wells. The plates were then covered and centrifuged at 280 g for 30 seconds before incubation on an orbital shaker for 30 minutes at room temperature. The acceptor bead mixture (3 μL/well) was then added to the cAMP standard curve wells, whilst the drug mixed with Forskolin solutions (3 μL/well) were added to the respective treatment wells in triplicate. Again, the plates were centrifuged at 280 g for 30 seconds, then covered and incubated on the orbital shaker for another 30 minutes. Finally, the donor bead mixture (10 μL/well) was added to each well. This was incubated at room temperature overnight on the orbital shaker.
The Ensight® Multimode Plate Reader was used to quantify the fluorescence units of each plate. Before reading, each plate was centrifuged at 280 g for 30 seconds. Using GraphPad Prism7® Software, cAMP concentrations were determined from the fluorescence data by fit spline/LOWESS analysis. The cAMP standard curve was used for interpolation at this point. The cAMP concentrations were then normalized to the highest cAMP concentration recorded and analyzed by one-way ANOVA for multiple comparisons. This analysis was corrected for multiple comparisons using Bonferroni. […]

[1] = concentration-response curve, % cAMP

## CC1(C)CNC(=O)C[C@@H](NC(=O)[C@@H](N)Cc2ccc(O)cc2)C(=O)NCC(=O)N[C@@H](Cc2ccccc2)C(=O)N[C@H](C(=O)N[C@@H](CCCNC(=N)N)C(=O)N[C@@H](CCCNC(=N)N)C(N)=O)CSS1 [DP-7-12, c(Tyr-D(Asp)-Gly-Phe-SSa-Arg-Arg)] (H-Y[dD]GFCRR-NH2; linker 2-5 via NHCH2CMe2S)
DOP
  IC50: 0.608 nM
  IC80: 2.72 nM
DOP; cAMP IC50 DOP vs KOP
  Potency at DOP relative to KOP: ten times
DOP; [1]
  Maximum cAMP response, HEK-DOP: 14.03%
KOP
  Mean cAMP response (FIG. 14): 52.40%
  Naloxone reversal of cAMP inhibition through KOP: reversed by naloxone

## CC1(C)CNC(=O)C[C@H](C(=O)N[C@@H](CCCNC(=N)N)C(=O)N[C@@H](CCCNC(=N)N)C(N)=O)NC(=O)[C@H](Cc2ccccc2)NC(=O)CNC(=O)[C@@H](NC(=O)[C@@H](N)Cc2ccc(O)cc2)CSS1 [DP-7-11, c(Tyr-SSa-Gly-Phe-D(Asp)-Arg-Arg)]
DOP
  IC50: 1.83 nM
  IC80: 24.1 nM
DOP; [1]
  Maximum cAMP response, HEK-DOP: 93.79%
  Minimum cAMP response, HEK-DOP: 23.13%
KOP
  Mean cAMP response (FIG. 14): 56.14%
  Naloxone reversal of cAMP inhibition through KOP: reversed by naloxone
